For series [1] the following is noted: cited from earlier work; for reducing strength: reduction of a disulfide bond.
The nature of the next series: pKa of the dithiol. The format is physicochemical. From the text:
(§1) The following is taken from Lamoureux and Whitesides, 58 J. Org. Chem. 633, 1993, hereby incorporated by reference herein. The general methodology and equations used for analysis are presented there, and are not repeated here.

A short description of series [2]: thiol/disulfide equilibrium (reduction strength) relative to oxidized mercaptoethanol.
Source text: In addition to a fast rate of reduction, a useful dithiol should be strongly reducing in order to reduce disulfides quantitatively and to maintain thiols in the reduced state without the inconvenience of mixed disulfides. […] We have used this equilibrium to evaluate several dithiols in terms of their reduction strength.
as §1

Series [3] in a line: stability of aqueous solution of the dithiol. It is filed as physicochemical. The note with it: over several days, protected from atmospheric oxygen.

The source of these data is patent publication US5460806A, “Bis(2-mercaptoethyl) sulfone” (President and Fellows of Harvard College, priority 1993, dated 1995).

Usually pKa stands for the negative logarithm of the acid dissociation constant.

“Also recorded” adds a separate entry of the source.

For `O[C@H](CS)[C@H](O)CS` (racemic) [DTT, Dithiothreitol], in series [1] (pH=7, background statement), the “rate of reduction (in words), pH=7” value is listed as “kinetically slow”. Moreover, the reducing strength result in series [1] (background statement) is listed as “strong reductant; also recorded: one of the most strongly reducing dithiols”.

Take `OCCS` [Mercaptoethanol]: the “rate of reduction (in words)” value in series [1] (background statement, pH not given) is “slow”. In addition, the reducing strength result in series [1] (background statement) is recorded as “weak”.

Take `O=S(=O)(CCS)CCS` [bis(2-mercaptoethyl) sulfone, Bis(2-mercaptoethyl) sulfone]: in the series “pKa of the dithiol”, the pKa was ~7.9. Moreover, the “equilibrium constant relative to oxidized mercaptoethanol” value in series [2] is “about 63”. In series [3], the “signs of decomposition of aqueous solution” value is reported as “no signs of decomposition”.
